PMC9603901, “Therapeutic Potential of Antimicrobial Peptide PN5 against Multidrug-Resistant E. coli and Anti-Inflammatory Activity in a Septic Mouse Model” (Microbiology Spectrum, 2022)
Converted amounts (≈) assume the structure as drawn. Where no end group is shown, it is not given here.

Key:
[1] = test system: E. coli ATCC 25922; assay: microbe, parasite or virus in culture; type: cell-based, Escherichia coli; details: E. coli ATCC 25922 passaged with 0.5× MIC of the same agent
Experimental: (§1) E. coli ATCC 25922 cells were incubated overnight at 37°C in LB medium with shaking (180 rpm) and then adjusted to 2 × 10^5 CFU mL^−1; 0.5× MIC of PN5 and antibiotics were added to the medium and cultured overnight at 37°C with aeration (180 rpm). The MIC was determined by measuring the OD600 using a Versa Max microplate reader. On the next day, to measure the MIC with the bacteria grown after treatment with 0.5× MIC, the bacteria and antibiotic were adjusted to the same concentration, and the bacteria were cultured by adding 0.5× MIC in the same manner. The initial culture was continuously cultured for 25 passages in this manner.

[2] = test system: E. coli – Ceftazidime (Passage 25); assay: microbe, parasite or virus in culture; type: cell-based, Escherichia coli; details: E. coli ATCC 25922 with resistance induced by ceftazidime, passage 25; three independent experiments
Experimental: as §1

[3] = test system: E. coli – Meropenem (Passage 25); assay: microbe, parasite or virus in culture; type: cell-based, Escherichia coli; details: E. coli ATCC 25922 with resistance induced by meropenem, passage 25; three independent experiments
Experimental: as §1

[4] = test system: MDR E. coli ASEC 18; design: method as in Asan hospital; key to susceptibility category: S: susceptible; R: resistant; I: intermediate; details: ref Asan hospital, cited from earlier work
[5] = test system: MDR E. coli ASEC 10; design: method as in Asan hospital; key to susceptibility category: S: susceptible; R: resistant; I: intermediate; details: ref Asan hospital, cited from earlier work
[6] = test system: MDR E. coli ASEC 8; design: method as in Asan hospital; key to susceptibility category: S: susceptible; R: resistant; I: intermediate; details: ref Asan hospital, cited from earlier work
[7] = test system: MDR E. coli ASEC 3; design: method as in Asan hospital; key to susceptibility category: S: susceptible; R: resistant; I: intermediate; details: ref Asan hospital, cited from earlier work
[8] = test system: MDR E. coli ASEC 6; design: method as in Asan hospital; key to susceptibility category: S: susceptible; R: resistant; I: intermediate; details: ref Asan hospital, cited from earlier work
[9] = test system: MDR E. coli ASEC 12; design: method as in Asan hospital; key to susceptibility category: S: susceptible; R: resistant; I: intermediate; details: ref Asan hospital, cited from earlier work
[10] = test system: MDR E. coli ASEC 14; design: method as in Asan hospital; key to susceptibility category: S: susceptible; R: resistant; I: intermediate; details: ref Asan hospital, cited from earlier work
[11] = test system: MDR E. coli ASEC 13; design: method as in Asan hospital; key to susceptibility category: S: susceptible; R: resistant; I: intermediate; details: ref Asan hospital, cited from earlier work
[12] = test system: MDR E. coli ASEC 17; design: method as in Asan hospital; key to susceptibility category: S: susceptible; R: resistant; I: intermediate; details: ref Asan hospital, cited from earlier work
[13] = test system: MDR E. coli ASEC 7; design: method as in Asan hospital; key to susceptibility category: S: susceptible; R: resistant; I: intermediate; details: ref Asan hospital, cited from earlier work
[14] = test system: MDR E. coli ASEC 9; design: method as in Asan hospital; key to susceptibility category: S: susceptible; R: resistant; I: intermediate; details: ref Asan hospital, cited from earlier work
[15] = test system: MDR E. coli ASEC 2; design: method as in Asan hospital; key to susceptibility category: S: susceptible; R: resistant; I: intermediate; details: ref Asan hospital, cited from earlier work
[16] = test system: MDR E. coli ASEC 4; design: method as in Asan hospital; key to susceptibility category: S: susceptible; R: resistant; I: intermediate; details: ref Asan hospital, cited from earlier work
[17] = test system: MDR E. coli ASEC 15; design: method as in Asan hospital; key to susceptibility category: S: susceptible; R: resistant; I: intermediate; details: ref Asan hospital, cited from earlier work
[18] = test system: MDR E. coli ASEC 19; design: method as in Asan hospital; key to susceptibility category: S: susceptible; R: resistant; I: intermediate; details: ref Asan hospital, cited from earlier work
[19] = test system: MDR E. coli ASEC 11; design: method as in Asan hospital; key to susceptibility category: S: susceptible; R: resistant; I: intermediate; details: ref Asan hospital, cited from earlier work

## FKFLARTGKFL-NH2 [PN5]
[1]
  MIC after 25 passages: 16 µM
[2]
  MIC: 16 µM
[3]
  MIC: 16 µM

## CO/N=C(\C(=O)N[C@@H]1C(=O)N2C(C(=O)O)=C(COC(C)=O)CS[C@H]12)c1csc(N)n1 [Cefotaxime]
[4]; ASEC 18 (AmpC), resistance information of clinical isolate
  MIC: 32 µg/mL (≈ 70.3 µM)
[4]; ASEC 18
  susceptibility category: R
[5]; ASEC 10 (ESBL), resistance information of clinical isolate
  MIC: > 32 µg/mL
[5]; ASEC 10
  susceptibility category: R
[6]; ASEC 8 (ESBL), resistance information of clinical isolate
  MIC: > 32 µg/mL
[6]; ASEC 8
  susceptibility category: R
[7]; ASEC 3 (NDM-5), resistance information of clinical isolate
  MIC: > 32 µg/mL
[7]; ASEC 3
  susceptibility category: R
[8]; ASEC 6 (ESBL), resistance information of clinical isolate
  MIC: > 32 µg/mL
[8]; ASEC 6
  susceptibility category: R
[9]; ASEC 12 (AmpC), resistance information of clinical isolate
  MIC: > 32 µg/mL
[9]; ASEC 12
  susceptibility category: R
[10]; ASEC 14 (AmpC), resistance information of clinical isolate
  MIC: > 32 µg/mL
[10]; ASEC 14
  susceptibility category: R
[11]; ASEC 13 (AmpC), resistance information of clinical isolate
  MIC: > 32 µg/mL
[11]; ASEC 13
  susceptibility category: R
[12]; ASEC 17 (AmpC), resistance information of clinical isolate
  MIC: > 32 µg/mL
[12]; ASEC 17
  susceptibility category: R
[13]; ASEC 7 (ESBL), resistance information of clinical isolate
  MIC: > 32 µg/mL
[13]; ASEC 7
  susceptibility category: R
[14]; ASEC 9 (ESBL), resistance information of clinical isolate
  MIC: > 32 µg/mL
[14]; ASEC 9
  susceptibility category: R
[15]; ASEC 2 (NDM-7), resistance information of clinical isolate
  MIC: > 32 µg/mL
[15]; ASEC 2
  susceptibility category: R
[16]; ASEC 4 (ESBL), resistance information of clinical isolate
  MIC: > 32 µg/mL
[16]; ASEC 4
  susceptibility category: R
[17]; ASEC 15 (AmpC), resistance information of clinical isolate
  MIC: > 32 µg/mL
[17]; ASEC 15
  susceptibility category: R
[18]; ASEC 19 (AmpC), resistance information of clinical isolate
  MIC: > 32 µg/mL
[18]; ASEC 19
  susceptibility category: R
[19]; ASEC 11 (ESBL), resistance information of clinical isolate
  MIC: > 32 µg/mL
[19]; ASEC 11
  susceptibility category: R
